Assays:
hMAO-A = molecular target: T1, hMAO-A (Homo sapiens, UniProt P21397); assay: MAO-Glow luminescence screen of KKRs at 100 μM; format: biochemical; settings: from screen at 100 μM, 37 °C, 60 min, LDS 40 μM
T1 construct: purchased Sigma-Aldrich Co. (St. Louis, MO, USA)
T1 sequence (P21397 1-527): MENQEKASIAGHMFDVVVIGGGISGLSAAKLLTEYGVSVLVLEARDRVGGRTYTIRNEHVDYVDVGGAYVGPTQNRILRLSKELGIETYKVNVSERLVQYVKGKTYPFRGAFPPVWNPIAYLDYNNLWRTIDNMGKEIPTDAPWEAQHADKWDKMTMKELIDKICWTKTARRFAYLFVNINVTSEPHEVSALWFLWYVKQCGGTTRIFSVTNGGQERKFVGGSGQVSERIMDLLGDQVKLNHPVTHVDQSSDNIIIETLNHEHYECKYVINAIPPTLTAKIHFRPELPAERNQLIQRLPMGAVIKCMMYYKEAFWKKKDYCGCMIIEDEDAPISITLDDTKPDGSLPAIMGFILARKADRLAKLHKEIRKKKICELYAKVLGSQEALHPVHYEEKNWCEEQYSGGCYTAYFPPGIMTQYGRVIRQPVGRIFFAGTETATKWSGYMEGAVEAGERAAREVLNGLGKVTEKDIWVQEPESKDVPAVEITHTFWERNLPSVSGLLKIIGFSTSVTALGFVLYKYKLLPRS
Protocol: We optimized our control hMAO-A and hMAO-B isozymes reactions in the incubation condition, at 37 °C for 1 h, by performing a luminescence assay using the MAO-Glow™ kit. Upon arrival, each isozyme was diluted with 10 mM HEPES in cold HBSS of pH 7.4. Afterward, the diluted isozymes were kept at −80 °C until use. Enzyme concentration optimization was accomplished by testing ten 2X serially diluted hMAO-A and hMAO-B concentrations for a final range of 7.00–0.01 U/mL each. The tested isozymes were incubated with LDS of 40 and 4 μM for isozymes A and B, respectively (recommended by Promega protocol), and a maximum of used DMSO of 1% final concentration. Different isozyme concentrations reactions at their initial velocities were monitored. Consequently, their required concentrations were defined to be 0.44 U/mL each. Additionally, ten different LDS concentrations, ranging from 0.3–150 μM, were monitored for optimizing and validating the linearity of the initial reaction for the hMAO-A mode of action. Subsequently, we chose a saturated substrate of 75 μM as a required concentration for the hMAO-A enzyme kinetic reactions.
The inhibitory effects of the synthesized KKRs of hMAO-A and B were tested by measuring the decrease in arbitrary light units (ALU) signal produced by the optimized isozymes using the MAO-Glow™ Assay at 37 °C. In this assay, DMSO stock for each KKR compound was diluted with a reaction buffer of pH 7.4 to make a 4X working solution for a maximum final concentration of 100 μM and ≤1% DMSO. The experiments were run in the absence and presence of 4X the miscellaneous standards of MAO-BIs (DEP, PARG, and SAF) and MAO-AIs (PIRL and CLORG), with similar concentrations. In white opaque 96-well microplates, 12.5 μL of each compound was plated at RT and was followed by 25 μL of 2X cold hMAO-A or hMAO-B, for a final concentration of 0.44 U/mL. A related buffer substituted each isozyme to make the blank wells and substituted each compound to make the negative control wells. Following this, we added 12.5 μL of 4X LDS to make a final substrate concentration of 40- and 4-μM for hMAO-A and hMAO-B, respectively. All screen plates were incubated at 37 °C for 60 min. The plates of 50 μL/well were then taken out from the incubator, and their reactions were stopped by an equal volume of 50 μL of reporter luciferin detection reagent (RLDR). After 30 min, the luminescence signals for all plates were read on a Synergy HTX Multi-reader from Bio-Tek (Winooski, VT, USA).

DU145 cells [1] = assay: Antiproliferation screen assay, resazurin, 72 h; format: cell-based, human; settings: 50 μM
Protocol: (§1) In this screen, we examined the growth inhibitory effects of all synthesized KKRs on the three human PCa cell lines LNCaP, DU145, and PC3. The antiproliferative clinical drug TAX of 0.25 μM was used as a positive control. Additionally, different standards of MAO-Is and FLUT were tested for their effect on the LNCaP cells. Briefly, the procedures and materials used were the same as for the viability assay except for the following—cultured cells were seeded at 10,000 cells/175-µL/well related experimental media, and the resazurin solution was added after 72 h of incubation with the compounds of 50 μM each.

LNCaP cells [2] = assay: cells; format: cell-based, human; settings: for effect on LNCaP proliferation and cell morphology: 20 μM, five days, phase contrast; for viability at 20 µM: Homo sapiens, LNCaP, 120 h, read-out: percentage of treated group compared to the viable control
Protocol: The morphological alterations of the LNCaP cells were imaged, and their percentage proliferation rate was measured after five-days of incubation. The method of subculture and treatment were similar to our antiproliferation assay, with slight modifications. Briefly, the cells were seeded in transparent flat-bottom 96-well microplates with 10,000 cells/175 μL/well of […] experimental media. Following overnight incubation, 20 μM concentration level (~2 × IC50) for each of KKR11, 20, 7, 2A, 21, and the standard PIRL were added to the cells for a total volume of 200 μL/well and re-incubated for five-days. On the day of imaging, 20X phase-contrast images of lid-covered treated and control cells were captured using an inverted microscope. Resazurin was then added for viability detection, and the imaged cells in the wells were read after 4.5 h on the Bio-Tek Synergy HTX Multi-reader.

DU145 cells [3] = assay: Scratch migration assay; format: cell-based, human; settings: preliminary data
Protocol: For in-vitro migration experiments, the PCa metastatic DU145 cell line was used. Cell proliferation and cytotoxicity were monitored for assay validation. The cells (passage # ≤ 10) were grown in fresh media of EMEM 10% FBS, 1% P/S. The cells were seeded in flat-bottom transparent 96-well microplates (100,000 cells/100 μL/well) in EMEM 5% FBS, 1% P/S experimental media. The next day, the confluent cells monolayer was artificially injured by scratching a line across each well, using a 200 μL tip. Immediately, the old media with the detached cells were replaced with 175 μL fresh warm experimental media. Intact cells were then treated with 25 μL of HBSS buffer 7.4 containing tested KKR. In addition to the negative control, KKR11 was tested at gradual concentrations to make finals of 40, 30, 23, 17, and 13 μM. The cells were then incubated for an additional 72 h for gap closure of the control wells.
At the gap closure time point, all cells were subjected to the crystal violet assay that only stains viable cells. Briefly, all media were carefully aspired from cells that were then washed with Ca- and Mg-free PBS. The cells were then fixed with 100 μL 0.25% v/v glutaraldehyde, at 37 °C for 20–30 min incubation time, and dried overnight. The next day, all viable attached cells were stained with a 100 μL crystal violet solution (0.1% in DI-water) for up to 30 min. The solution was then discarded, and the stained cells were kept dry for imaging. Images of the scratched areas were photographed using 10X phase contrast objective lenses of Motic-MXH-100-AE31E-Elite Inverted Microscope.

LNCaP cells [4] = assay: Antiproliferation screen assay, resazurin, 72 h; format: cell-based, human; settings: 50 μM
Protocol: as §1

| Structure (SMILES) | IC90 (hMAO-A) [µM] | antiproliferative effect in screen (DU145 cells [1]) | effect on LNCaP proliferation and cell morphology (LNCaP cells [2]) | viability at 20 µM (LNCaP cells [2]) [%] | effect on cell migration (DU145 cells [3]) | antiproliferative effect in screen (LNCaP cells [4]) |
| --- | --- | --- | --- | --- | --- | --- |
| O=c1c(O)c(-c2ccccc2)oc2c(Cl)cc(Cl)cc12 [KKR7, 6,8-dichloro-3-hydroxy-2-phenyl-4H-chromen-4-one] | < 100 | top effective | dramatically and differently altered cell morphology with a highly significant loss of proliferation | 25 | no significant effects against cell migration | – |
| O=C(/C=C/c1ccccc1)c1cc(Cl)cc(Cl)c1O [KKR20, (E)-1-(3,5-dichloro-2-hydroxyphenyl)-3-phenylprop-2-en-1-one] | < 100 | – | dramatically and differently altered cell morphology with a highly significant loss of proliferation | 26 | no significant effects against cell migration | top five KKRs that kept standing out with antiproliferative effects |
| COc1cc(OC)c2c(=O)c(O)c(/C=C/c3cc(OC)c(OC)c(OC)c3)oc2c1 [KKR2A, (E)-3-hydroxy-5,7-dimethoxy-2-(3,4,5-trimethoxystyryl)-4H-chromen-4-one] | < 100 | no effects on any of the screened PCa cell models | neither significant effects on LNCaP proliferation nor apparent changes in cell morphology | 96 | – | no effects on any of the screened PCa cell models |
| O=c1cc(-c2ccccc2)oc2cc(Cl)c(Cl)cc12 [KKR21, 6,7-dichloro-2-phenyl-4H-chromen-4-one] | < 100 | no effects on any of the screened PCa cell models | neither significant effects on LNCaP proliferation nor apparent changes in cell morphology | 94 | – | no effects on any of the screened PCa cell models |
| COc1cc(O)c(C(=O)/C=C/c2ccc(Cl)c(Cl)c2)c(OC)c1 [KKR11, (E)-3-(3,4-dichlorophenyl)-1-(2-hydroxy-4,6-dimethoxyphenyl)prop-2-en-1-one] | < 100 | top effective | dramatically and differently altered cell morphology with a highly significant loss of proliferation | 11 | delayed cell migration | top five KKRs that kept standing out with antiproliferative effects |

From paper PMC7249060, “The Antiproliferative Effects of Flavonoid MAO Inhibitors on Prostate Cancer Cells” (Molecules, 2020)
